Source: ChEMBL document CHEMBL5726652, “Oxazole orexin receptor antagonists” (2017)
pIC50: −log10 of the molar value.

Biological target: T1, Orexin receptor type 2 (Homo sapiens, UniProt O43614)
T1 sequence (O43614 whole entry): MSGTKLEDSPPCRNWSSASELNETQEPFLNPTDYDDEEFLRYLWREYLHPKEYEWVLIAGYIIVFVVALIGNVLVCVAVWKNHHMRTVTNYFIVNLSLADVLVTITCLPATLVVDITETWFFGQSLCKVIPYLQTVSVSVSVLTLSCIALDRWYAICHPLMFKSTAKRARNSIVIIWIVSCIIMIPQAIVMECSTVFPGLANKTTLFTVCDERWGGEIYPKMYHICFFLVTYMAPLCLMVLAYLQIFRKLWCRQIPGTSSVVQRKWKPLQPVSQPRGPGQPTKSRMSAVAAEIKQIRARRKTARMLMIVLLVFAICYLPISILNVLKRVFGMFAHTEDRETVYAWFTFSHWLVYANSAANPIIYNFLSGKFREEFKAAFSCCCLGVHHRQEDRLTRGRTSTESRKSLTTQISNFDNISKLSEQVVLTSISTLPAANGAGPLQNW
Test: FLIPR Ca2+ Flux Assay: For intracellular calcium measurements, Chinese hamster ovary (CHO) cells expressing the rat orexin-1 receptor or the human orexin-2 receptor, are grown in Iscove's modified DMEM containing 2 mM L-glutamine, […], 1% hypoxanthine-thymidine supplement, 100 U/ml penicillin, 100 μg/ml streptomycin and 10% heat-inactivated fetal calf serum (FCS). The cells are seeded at 20,000 cells/well into Becton-Dickinson black 384-well clear bottom sterile plates coated with poly-D-lysine. All reagents were from GIBCO-Invitrogen Corp. The seeded plates are incubated overnight at 37° C. and 5% CO2. Ala-6,12 human orexin-A as the agonist is prepared as a 1 mM stock solution in 1% bovine serum albumin (BSA) and diluted in assay buffer (HBSS containing 20 mM HEPES, 0.1% BSA and 2.5 mM probenecid, pH7.4) for use in the assay at a final concentration of 70 pM. Test compounds are prepared as 10 mM stock solution in DMSO, then diluted in 384-well plates, first in DMSO, then assay buffer. On the day of the assay, cells are washed 3 times with 100 μl assay buffer and then incubated for 60 min (37° C., 5% CO2) in 60 μl assay buffer containing 1 μM Fluo-4AM ester, 0.02% pluronic acid, and 1% BSA. The dye loading solution is then aspirated and cells are washed 3 times with 100 μl assay buffer. 30 μl of that same buffer is left in each well. […]
Format: cell-based

Cc1oc([C@@H]2CC[C@@H](C)N(C(=O)c3cscc3-c3ncccn3)C2)nc1C(C)(C)O
pIC50: 7.25

COC(=O)Cc1nc([C@@H]2CC[C@@H](C)N(C(=O)c3ccccc3-n3nccn3)C2)oc1-c1ccccc1
pIC50: 7.48
